Measured values taken from patent US20220389008A1, “4-QUINOLINONE ANTIBACTERIAL COMPOUNDS” (Janssen Sciences Ireland Unlimited Company, priority 2019, published 2022).
Where “and” joins values, the source holds several entries; their conditions need not be identical. Equal values may be shown once. Read-outs that look alike come from different tables or passages of the source.

Assays:
[1] = test system: Mycobacterium tuberculosis (strain H37Ra), cyt bd; conditions: Mtb H37Ra; for (i) % OCR after cyt bd inhibitor: test compound 10 μM added after Compound X 0.9 μM; for (ii) % OCR after cccp: test compound 10 μM after Compound X 0.9 μM, then CCCP 1 μM
[2] = test system: Mitochondrial toxicity (Glu/Gal); test: Mitochondrial toxicity (Glu/Gal) assay; assay type: cell-based; parameters: key to Score: “negative” means that in the test, it was found to have low mitotoxicity (and hence no mitotoxicity alerts); “positive” means that there were some mitotoxicity alerts; “inconclusive” means that no accurate conclusion could be drawn; conditions: for Score: mitotoxicity score; for Δ IC50,glu/IC50,gal: ratio glu/gal
Excerpt: The compounds of the invention/examples may have advantages associated with in vitro potency, kill kinetics (i.e. bactericidal effect) in vitro, PK properties, food effect, safety/toxicity (including liver toxicity, coagulation, 5-LO oxygenase), metabolic stability, Ames II negativity, MNT negativity, aqueous based solubility (and ability to formulate) and/or cardiovascular effect e.g. on animals (e.g. anesthetized guinea pig). The data below that was generated/calculated may be obtained using standard methods/assays, for instance that are available in the literature or which may be performed by a supplier (e.g. Microsomal Stability Assay—Cyprotex, Mitochondrial toxicity (Glu/Gal) assay—Cyprotex, as well as literature CYP cocktail inhibition assays).

[3] = test system: Mycobacterium tuberculosis strain H37Rv ΔctaE-ΔqcrCAB; test: microbe, parasite or virus in culture; assay type: cell-based; conditions: 240 h
rNaCh = test: CVS / cardio tox rNaCh; assay type: binding, rat; conditions: read-out: Cardio tox rNaCH (IC50)
rCaCh = test: CVS / cardio tox rCaCh; assay type: binding, rat
hERG = hERG (Homo sapiens, UniProt Q12809); test: CVS / cardio tox hERG (DOF); assay type: binding; conditions: DOF; read-out: Cardio tox hERG(DOF) (IC50)
[4] = test system: M. tuberculosis (strain H37Rv and H37Ra); test: Time kill kinetics assay (Test 3); assay type: cell-based, Mycobacterium tuberculosis
Procedure: Time Kill Kinetics Assays: Test 3
Bactericidal or bacteriostatic activity of the compounds can be determined in a time kill kinetic assay using the broth dilution method. In this assay, the starting inoculum of M. tuberculosis (strain H37Rv and H37Ra) is 10^6 CFU/ml in Middlebrook (1×) 7H9 broth. The test compounds (cyt bd inhibitors) are tested in combination with a cyt bc inhibitor (for example Q203 or Compound X) at the concentration ranging from 10-30 μM to 0.9-0.3 μM respectively. Tubes receiving no antibacterial agent constitute the culture growth control. The tubes containing the microorganism and the test compounds are incubated at 37° C. After 0, 1, 4, 7, 14 and 21 days of incubation samples are removed for determination of viable counts by serial dilution (10^0 to 10^−6) in Middlebrook 7H9 medium and plating (100 μl) on Middlebrook 7H11 agar. The plates are incubated at 37° C. for 21 days and the number of colonies are determined. Killing curves can be constructed by plotting the log10 CFU per ml versus time. A bactericidal effect of a cytochrome be and cytochrome bd inhibitor (either alone or in combination) is commonly defined as 2-log10 decrease (decrease in CFU per ml) compared to Day 0. The potential carryover effect of the drugs is limited by using 0.4% charcoal in the agar plates, and by serial dilutions and counting the colonies at highest dilution possible used for plating.
Compounds of the examples are/were tested in Test 3 (the kill kinetics) described above, obtaining results expressed as a log reduction in CFUs per ml as compared to Day 0.

[5] = galactose medium, read-out: IC50, gal
[6] = glucose medium, read-out: IC50, glu
[7] = Q203 alone 0.168 μg/ml, Log Day 0 5.56
[8] = Compound X alone 0.17 μg/ml, Log Day 0 6.66

Sequence of hERG (Q12809 whole entry): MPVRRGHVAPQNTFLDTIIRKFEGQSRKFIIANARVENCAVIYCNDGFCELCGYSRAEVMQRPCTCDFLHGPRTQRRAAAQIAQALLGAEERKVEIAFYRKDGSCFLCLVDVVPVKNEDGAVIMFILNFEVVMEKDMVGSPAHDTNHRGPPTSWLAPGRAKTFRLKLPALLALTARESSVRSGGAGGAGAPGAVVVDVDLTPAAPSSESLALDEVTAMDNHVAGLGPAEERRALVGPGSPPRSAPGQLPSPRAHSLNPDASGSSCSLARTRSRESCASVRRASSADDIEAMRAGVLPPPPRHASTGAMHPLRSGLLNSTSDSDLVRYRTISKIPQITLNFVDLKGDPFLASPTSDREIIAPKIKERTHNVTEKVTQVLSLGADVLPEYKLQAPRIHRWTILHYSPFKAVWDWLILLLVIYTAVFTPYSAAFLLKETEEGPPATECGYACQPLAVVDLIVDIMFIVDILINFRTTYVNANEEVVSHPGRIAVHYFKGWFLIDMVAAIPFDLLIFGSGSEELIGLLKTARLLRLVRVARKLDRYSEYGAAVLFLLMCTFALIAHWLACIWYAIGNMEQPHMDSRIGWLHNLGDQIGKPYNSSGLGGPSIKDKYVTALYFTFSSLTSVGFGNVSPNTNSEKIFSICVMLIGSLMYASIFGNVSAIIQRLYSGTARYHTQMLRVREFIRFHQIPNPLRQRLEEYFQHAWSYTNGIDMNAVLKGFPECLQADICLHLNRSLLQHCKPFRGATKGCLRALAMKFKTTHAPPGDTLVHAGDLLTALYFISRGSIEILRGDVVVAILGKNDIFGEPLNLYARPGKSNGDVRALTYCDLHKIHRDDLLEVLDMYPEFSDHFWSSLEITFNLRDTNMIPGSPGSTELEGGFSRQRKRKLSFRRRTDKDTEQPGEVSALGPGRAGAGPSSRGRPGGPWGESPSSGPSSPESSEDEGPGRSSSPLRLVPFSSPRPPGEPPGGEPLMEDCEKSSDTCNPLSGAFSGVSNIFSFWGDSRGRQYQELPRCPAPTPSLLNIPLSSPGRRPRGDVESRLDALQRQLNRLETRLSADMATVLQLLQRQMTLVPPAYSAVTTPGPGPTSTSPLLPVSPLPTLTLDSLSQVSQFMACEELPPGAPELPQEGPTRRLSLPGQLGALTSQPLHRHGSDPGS

| SMILES | (i) % OCR after cyt bd inhibitor [1] | (ii) % OCR after cccp [1] | IC50 [2, 5] | IC50 [2, 6] | Score [2] | Δ IC50,glu/IC50,gal [2] | IC50 [3] | IC50 (rNaCh) | Cardio tox rCaCh IC50 (µM) (rCaCh) | IC50 (hERG) | Log Day 21 [4, 7] | Log Day 21-Log Day 0 [4, 7] | Log Day 21 [4, 8] | Log Day 21-Log Day 0 [4, 8] |
| --- | --- | --- | --- | --- | --- | --- | --- | --- | --- | --- | --- | --- | --- | --- |
| Cc1c(-c2nc3ccc(-c4ccc(C(F)(F)F)cc4)cn3n2)[nH]c2ccccc2c1=O [Compound 4] | 32.75% | 40.05% | 50 µM | 50 µM | negative | [x]0 | 1.25 µM | 2.3 µM | > 10 | > 10 µM | – | – | – | – |
| Cc1c(-c2cc3ccc(-c4ccc(OC(F)(F)F)cc4)cn3n2)[nH]c2ccccc2c1=O [Compound 5] | 43.48% | 49.26% | 45.9 µM | 106 µM | inconclusive | [x]2.32 | 1.27 µM | > 10 µM | >10, >10, >10 | > 10 µM | – | – | – | – |
| Cc1c(-c2nc3ccc(-c4cccc(F)c4)cn3n2)[nH]c2ccccc2c1=O [Compound 12] | 62.09% | 79.37% | 100 µM | 100 µM | negative | [x]0 | 0.885 µM | > 10 µM | > 10 | > 3.02 µM | – | – | – | – |
| Cc1c(-c2nc3ccc(-c4nc(C(F)(F)F)cs4)cn3n2)[nH]c2ccccc2c1=O [Compound 18] | 76.01% | 98.7% | 15.8 µM | 23.4 µM | negative | [x]1.48 | 1.88 µM | 1.51 µM | > 10 | > 10 µM | – | – | – | – |
| Cc1c(-c2nc3ccc(C(F)(F)F)cn3n2)[nH]c2ccccc2c1=O [Compound 19] | 99.4% | 100.5% | 100 µM | 100 µM | negative | [x]0 | – | > 10 µM | >10, >10, >10 | > 10 µM | – | – | – | – |
| Cc1c(-c2cc3ccc(-c4ccc(OC(F)(F)F)cc4)cn3c2)[nH]c2ccccc2c1=O [Compound 22] | 82.7% | 109.8% | 9.9 µM | 140 µM | positive | >13.3 | 3.75 µM | 6.9 µM | > 10 | > 10 µM | – | – | – | – |
| Cc1c(-c2cc3cc(-c4ccc(OC(F)(F)F)cc4)ccn3c2)[nH]c2ccccc2c1=O [Compound 25] | 65.2% | 114.3% | 9.9 µM | 200 µM | positive | >20.2 | 3.09 µM | > 10 µM | >10, >10, >10 | > 10 µM | – | – | – | – |
| Cc1c(-c2nc3ccc(-c4ccc(OC(F)(F)F)nc4)cn3n2)[nH]c2ccccc2c1=O [Compound 26] | 71% | 116.7% | 9.59 µM | 13.3 µM | negative | [x]1.39 | 7.69 µM | > 10 µM | >10, >10, >10 | > 10 µM | – | – | – | – |
| Cc1c(-c2cn3ccc(Oc4ccc(OC(F)(F)F)cc4)cc3n2)[nH]c2ccccc2c1=O [Compound 29] | 64.6% | 118.5% | 53.7 µM | 79.7 µM | negative | 1.5 | – | 2.3 µM | 3.3 | ~9.1 µM | – | – | – | – |
| Cc1c(-c2nc3ccc(F)cn3n2)[nH]c2ccccc2c1=O [Compound 33] | 61.2% | 123.6% | 100 µM | 100 µM | negative | [x]0 | > 100 µM | > 10 µM | >10, >10, >10 | > 10 µM | – | – | – | – |
| Cc1c(-c2cn3cc(Oc4ccc(OC(F)(F)F)cc4)ccc3n2)[nH]c2ccccc2c1=O [Compound 44] | 76% | 138.6% | 58.5 µM | 47.8 µM | negative | 0.8 | 9.75 µM | 1.2 µM | 3.8 | 1.5 µM | – | – | – | – |
| Cc1c(-c2cn3ccc(Cc4ccc(OC(F)(F)F)cc4)cc3n2)[nH]c2ccccc2c1=O [Compound 52] | 82.2% | 148.1% | 108 µM | 134 µM | negative | 1.2 | > 100 µM | 7.4 µM | ~1.9 | > 10 µM | – | – | – | – |
| Cc1c(-c2nc3ccc(Br)cn3n2)[nH]c2ccccc2c1=O [Compound 55] | 109.2% | 148.3% | 200 µM and 100 µM | 200 µM and 100 µM | negative | [x]0;[x]0 | 36.1 µM | > 10 µM | >10, >10, >10 | > 10 µM | – | – | – | – |
| Cc1c(-c2nc3ccc(-c4cn(CC(F)(F)F)nn4)cn3n2)[nH]c2ccccc2c1=O [Compound 58] | 139.74% | 153.33% | 100 µM | 100 µM | negative | [x]0 | > 25 µM | > 10 µM | >10, >10, >10 | > 10 µM | – | – | – | – |
| Cc1c(-c2cn3cc(Cc4ccc(OC(F)(F)F)cc4)ccc3n2)[nH]c2ccccc2c1=O [Compound 63] | 85.8% | 157.9% | 96.8 µM | 200 µM | inconclusive | >1.7 | 76.2 µM | 2.8 µM | > 3.0 | > 10 µM | – | – | – | – |
| COc1cc2[nH]c(-c3nc4ccc(-c5ccc(OC(F)(F)F)cc5)cn4n3)c(C)c(=O)c2cc1OC [Compound 70] | 102.2% | 165.65% | 27.1 µM | 100 µM | inconclusive | [x]3.69 | > 50 µM | > 10 µM | >10, >10, >10 | > 10 µM | – | – | – | – |
| CCc1nc2ccc(Cl)cn2c1C(=O)NCc1ccc(N2CCC(c3ccc(OC(F)(F)F)cc3)CC2)cc1 [Compound Q203, 6-chloro-2-ethyl-N-(4-(4-(4-(trifluoromethoxy)phenyl)piperidin-1-yl)benzyl)imidazo[1,2-a]pyridine-3-carboxamide, reference compound] | – | – | – | – | – | – | – | – | – | – | 2.59 log CFUs per ml | −2.97 log CFUs per ml | – | – |
| CCc1nc2ccc(Cl)cn2c1C(=O)NCc1ccc(C2CC3(C2)CN(S(=O)(=O)C(F)(F)F)C3)cc1 [Compound X, 6-chloro-2-ethyl -N-({4-[2-(trifluoromethanesulfonyl)-2-azaspiro[3.3]heptan-6-yl]phenyl}methyl)imidazo[1,2-a]pyridine-3-carboxamide, reference compound] | – | – | – | – | – | – | – | – | – | – | – | – | 5.93 log CFUs per ml | −0.73 log CFUs per ml |
